Experimental data: ChEMBL document CHEMBL1155663, “A new major triterpene saponin from the roots of Cucurbita foetidissima” (J Nat Prod, 2000)
Calls of active or inactive are those of the source. The rule behind the calls is not given here.

System: HT-29
Assay: Potentiation of cisplatin-induced cytotoxicity against human HT29 cells
Format: functional, cell-based

SMILES: C[C@@H]1O[C@@H](O[C@@H]2[C@@H](OC(=O)[C@]34CCC(C)(C)C[C@@H]3C3=CC[C@@H]5[C@@]6(C)CC[C@H](O[C@@H]7O[C@H](C(=O)O)[C@@H](O)[C@H](O)[C@H]7O)C(C)(C)[C@@H]6CC[C@@]5(C)[C@]3(C)C[C@H]4O)OC[C@@H](O)[C@H]2O)[C@H](O)[C@H](O[C@H]2OC[C@H](O)[C@@H](O[C@H]3O[C@@H](CO)[C@H](O)[C@@H](O)[C@@H]3O)[C@@H]2O)[C@H]1O[C@@H]1OC[C@@H](O)[C@H](O)[C@H]1O
- Activity: inactive
